The target in assay [1] is T1, human M2 receptor (Homo sapiens, UniProt P08172).
T1 sequence (P08172 1-466): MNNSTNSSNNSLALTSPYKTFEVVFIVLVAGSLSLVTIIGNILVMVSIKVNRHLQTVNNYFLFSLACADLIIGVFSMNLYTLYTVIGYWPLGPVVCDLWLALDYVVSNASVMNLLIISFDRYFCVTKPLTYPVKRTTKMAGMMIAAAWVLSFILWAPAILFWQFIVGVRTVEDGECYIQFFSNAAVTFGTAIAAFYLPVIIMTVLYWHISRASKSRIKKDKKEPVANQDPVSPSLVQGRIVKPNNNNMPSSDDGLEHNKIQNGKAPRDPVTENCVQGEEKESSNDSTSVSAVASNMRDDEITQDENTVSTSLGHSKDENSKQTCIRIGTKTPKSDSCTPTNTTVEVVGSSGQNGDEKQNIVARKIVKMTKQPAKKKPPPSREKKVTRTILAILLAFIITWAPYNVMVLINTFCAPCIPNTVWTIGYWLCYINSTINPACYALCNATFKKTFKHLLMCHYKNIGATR
The format is cell-based. Conditions: α >1 = positive cooperativity. The protocol:
B-1.2. Determination of Positive Cooperativity (α Factor)
In contrast to the EC50 determination of the test substances (see B-1.1), however, this is not done using one acetylcholine concentration; instead, every concentration of the test substance is combined with an acetylcholine 8-point dose-response curve. […] The shift in the acetylcholine dose-response curve in the presence of increasing concentrations of the test substance is analysed and quantified by means of GraphPad PRISM (Allosteric EC50 shift). […] Positive cooperativity is the hallmark of a positive allosteric modulator. […] The greater the magnitude of the α value, the greater the extent of cooperativity between orthosteric and allosteric.

For assay [2], the target named is T1, human M2 receptor. Conditions: for Efficiency: boosting of the acetylcholine effect at EC20 acetylcholine concentration; for Emax: read-out: Efficiency, boosting of the acetylcholine effect at EC20 acetylcholine concentration.
[3] abbreviates: shift of acetylcholine dose-response curve (Allosteric EC50 shift).
The mark [4] stands for this setting: Receptor activity EC50, allosteric potency at EC20 acetylcholine, M2-GIRK1/4 reporter cells, in some cases mean of two or more determinations.
Where [5] appears, read: shift in the acetylcholine dose-response curve (Allosteric EC50 shift, GraphPad PRISM).
[6] abbreviates: Receptor activity EC50, M2-GIRK1/4 activation test, acetylcholine at EC20, allosteric potency, in some cases mean values from two or more determinations.

We go through nine molecules from US20190367516A1 (Bayer Pharma Aktiengesellschaft, priority 2015, published 2019).

Read-outs that look alike come from different tables or passages of the source.

One may read the EC50 as the concentration that produces a half-maximal response. In the case of `CC(NC(=O)c1cn(-c2c(F)cc(F)cc2F)c2nc(N3CCNC3=O)ccc2c1=O)C(F)(F)C(F)(F)F` (racemic) [Example 542, 4-Oxo-7-(2-oxoimidazolidin-1-yl)-N-[3,3,4,4,4-pentafluorobutan-2-yl]-1-(2,4,6-trifluorophenyl)-1,4-dihydro-1,8-naphthyridine-3-carboxamide], the “Cooperativity (alpha factor)” value on human M2 receptor [1] (setting [3]) is recorded as 36. For the same molecule, a half-maximal effect at human M2 receptor [2] (setting [4]) (EC50) was put at 19 nM. Besides, the Efficiency on human M2 receptor [2] (M2-GIRK1/4 reporter cells) is on record as 98.5%.
As to `O=C(NC(CC(F)(F)F)C1CC1)c1cn(-c2c(F)cc(F)cc2F)c2nc(N3C[C@@H](O)CC3=O)ccc2c1=O` (single isomer, unassigned) [Example 514], at human M2 receptor [1] (setting [3]), the “Cooperativity (alpha factor)” value was found to be 30. Besides, at human M2 receptor [2] (M2-GIRK1/4 reporter cells), the Efficiency was found to be 99.0%. Further, on human M2 receptor [2] (read-out: Receptor activity EC50, allosteric potency at EC20 acetylcholine, M2-GIRK1/4 reporter cells, in some cases mean of two or more determinations), the EC50 amounted to 10 nM.
As to `CC(C)C[C@H](NC(=O)c1cn(-c2c(F)cc(F)cc2F)c2nc(N3CCNC3=O)ccc2c1=O)C(F)(F)F` [Example 543, 4-Oxo-7-(2-oxoimidazolidin-1-yl)-N-[(2S)-1,1,1-trifluoro-4-methylpentan-2-yl)-1-(2,4,6-trifluorophenyl)-1,4-dihydro-1,8-naphthyridine-3-carboxamide], at human M2 receptor [1] (setting [3]), the “Cooperativity (alpha factor)” value turned out to be 28. Further, the EC50 at human M2 receptor [2] (setting [4]) was determined as 8 nM. For the same molecule, the Emax on human M2 receptor [2] (M2-GIRK1/4 reporter cells) turned out to be 100%.
Regarding `COC(=O)[C@@H]1CN(c2ccc3c(=O)c(C(=O)N[C@@H](C4CC4)C(F)(F)F)cn(-c4c(F)cc(F)cc4F)c3n2)C(=O)O1` [Example 666, Methyl (5S)-3-[6-{[(1S)-1-cyclopropyl-2,2,2-trifluoroethyl]carbamoyl}-5-oxo-8-(2,4,6-trifluorophenyl)-5,8-dihydro-1,8-naphthyridin-2-yl]-2-oxo-1,3-oxazolidine-5-carboxylate], the “Cooperativity (alpha factor)” value at human M2 receptor [1] (setting [3]) stood at 60. Also, at human M2 receptor [2] (setting [4]), a half-maximal response (EC50) required 22 nM. The Emax at human M2 receptor [2] (M2-GIRK1/4 reporter cells) came out at 100%.
As to `O=C(NC(c1ccccc1Cl)C(F)(F)F)c1cn(-c2ccc(F)cc2F)c2nc(N3CCCC(O)C3=O)ccc2c1=O` (racemic) [Example 206, rac-N-[(1R)-(2-Chlorophenyl)-2,2,2-trifluoroethyl]-1-(2,4-difluorophenyl)-7-[3-hydroxy-2-oxopiperidin-1-yl]-4-oxo-1,4-dihydro-1,8-naphthyridine-3-carboxamide], at human M2 receptor [1] (setting [5]), the “Cooperativity (alpha factor)” value was 14. The same molecule came in with an EC50 at human M2 receptor [2] (setting [6]) of 107 nM.
Consider `CO[C@@H]1CCN(c2ccc3c(=O)c(C(=O)NC45CCC(C)(CC4)CC5)cn(-c4ccc(F)cc4F)c3n2)C1` [Example 19, 1-(2,4-Difluorophenyl)-7-[(3R)-3-methoxypyrrolidin-1-yl]-N-(4-methylbicyclo[2.2.2]oct-1-yl)-4-oxo-1,4-dihydro-1,8-naphthyridine-3-carboxamide], for which the “Cooperativity (alpha factor)” value at human M2 receptor [1] (setting [5]) is 12. Also, the EC50 on human M2 receptor [2] (setting [6]) amounted to 58 nM.
Regarding `CC[C@H](NC(=O)c1cn(-c2ccc(F)cc2F)c2nc(N3CCC(O)C3)ccc2c1=O)C(F)(F)F` (single isomer, unassigned) [Example 219], on human M2 receptor [1] (setting [5]), the “Cooperativity (alpha factor)” value was found to be 33. A half-maximal response on human M2 receptor [2] (setting [6]) (EC50) required 106 nM.
With `CC(C)(C)[C@H](NC(=O)c1cn(-c2c(F)cc(F)cc2F)c2nc(N3C[C@@H](O)CC3=O)ccc2c1=O)C(F)(F)F` [Example 504, 7-[(4S)-4-Hydroxy-2-oxopyrrolidin-1-yl]-4-oxo-N-[(2S)-1,1,1-trifluoro-3,3-dimethylbutan-2-yl]-1-(2,4,6-trifluorophenyl)-1,4-dihydro-1,8-naphthyridine-3-carboxamide], the “Cooperativity (alpha factor)” value at human M2 receptor [1] (setting [3]) is 47. At human M2 receptor [2] (setting [4]), the EC50 was determined as 4 nM. Further, the Emax at human M2 receptor [2] (M2-GIRK1/4 reporter cells) is 100%.
Regarding `CC[C@H](NC(=O)c1cn(-c2ccc(F)cc2F)c2nc(NCCF)ccc2c1=O)C(F)(F)F` [Example 87, 1-(2,4-Difluorophenyl)-7-[(2-fluoroethyl)amino]-4-oxo-N-[(2S)-1,1,1-trifluorobutan-2-yl]-1,4-dihydro-1,8-naphthyridine-3-carboxamide], the “Cooperativity (alpha factor)” value at human M2 receptor [1] (setting [5]) worked out at 26. Further, the EC50 on human M2 receptor [2] (setting [6]) came out at 129 nM.
